Source: patent US20060014811A1, “Medicament for treatment of cancer” (priority 2002, published 2006)

Legend:
A549: human lung cancer = assay: Inhibitory test against cancer cell proliferation (3); assay type: cell-based; conditions: Test Example 6, 50% inhibitory concentration against proliferation, similar operations to Test Example 1
Procedure: (§1) Cancer cells (Jurkat: Human T-cell leukemia, MIA PACA-2: Human pancreatic cancer, RD: Human rhabdomyoma, HepG2: Human liver cancer) were cultured for 3 days in the presence or absence of a test compound using RPMI1640 medium containing 10% bovine fetal serum or Dalbecco's Modified Eagle's Medium containing 10% FBS. The number of living cells was counted by MTS method, and amounts of cell proliferation were compared and inhibitory ratios were measured. In the table below, 50% inhibitory concentrations against the proliferation of each cancer cell are shown.
(§2) Similar operations to Test Example 1 were carried out using cancer cells (HepG2: human liver cancer, A^549: human lung cancer, MIA PACA-2: human pancreatic cancer). In the table below, 50% inhibitory concentrations against proliferation of each cancer cell are shown.

[1] = test system: HepG2: Human liver cancer; assay: as above; assay type: cell-based; conditions: Test Example 6, 50% inhibitory concentration against proliferation, similar operations to Test Example 1
Procedure: as §1, §2

[2] = test system: MIA PACA-2: Human pancreatic cancer; assay: as above; assay type: cell-based; conditions: Test Example 6, 50% inhibitory concentration against proliferation, similar operations to Test Example 1
Procedure: as §1, §2

[3] = test system: HepG2: Human liver cancer; assay: Inhibitory test against cancer cell proliferation (1), MTS method; assay type: cell-based; conditions: 50% inhibitory concentration against proliferation, cultured for 3 days
Procedure: as §1

[4] = test system: Jurkat: Human T-cell leukemia; assay: as above; assay type: cell-based; conditions: 50% inhibitory concentration against proliferation, cultured for 3 days
Procedure: as §1

[5] = test system: MIA PACA-2: Human pancreatic cancer; assay: as above; assay type: cell-based; conditions: 50% inhibitory concentration against proliferation, cultured for 3 days
Procedure: as §1

RD: Human rhabdomyoma = assay: as above; assay type: cell-based; conditions: 50% inhibitory concentration against proliferation, cultured for 3 days
Procedure: as §1

B16 melanoma = assay: Metastasis inhibitory test using mouse bearing B16 melanoma; assay type: in vivo, B6 mouse; set-up: key to Colony Formation (melanoma colonies in the lungs vs control): ±: Same as control; +: Inhibited; ++: Remarkably inhibited; +++: No Formation; conditions: 30 mg/kg intraperitoneal once a day for 5 weeks, B16 melanoma cells inoculated by tail vein
Procedure: B16 melanoma cells (5×10^5 cells/mouse) were inoculated from a tail vein of a B6 mouse of the same kind by intravenous injection, and a test substance was administered once a day for 5 weeks from the day of the inoculation by intraperitoneal injection. Then, the test animal was sacrificed and the lungs were removed. The number of colonies of melanoma in the lungs was compared with that in the control (test substance administered at 0 mg/kg).

For `O=C(Nc1nc(-c2ccccc2)c(C(=O)c2ccccc2)s1)c1cc(Br)ccc1O` [compound 215, 5-Bromo-N-(5-benzoyl-4-phenylthiazol-2-yl)-2-hydroxybenzamide], the IC50 (A549: human lung cancer; Homo sapiens, A549) was 8.31 µM, the IC50 ([1]; Homo sapiens, HepG2) was 4.98 µM and the IC50 ([2]; Homo sapiens, MIA PaCa-2) was 2.76 µM.
`CC(=O)Oc1ccccc1C(=O)Nc1cc(Cl)cc(Cl)c1` [compound 120, 2-acetoxy-N-(3,5-dichlorophenyl)benzamide] gave a melting point of 218 to 219 °C.
With `CC(C)(C)c1ccc(O)c(C(=O)Nc2cc(C(F)(F)F)cc(C(F)(F)F)c2)c1` [compound 11, N-[3,5-Bis(trifluoromethyl)phenyl]-5-[(1,1-dimethyl)ethyl]-2-hydroxybenzamide] the IC50 ([3]; Homo sapiens, HepG2, 72 h) was 1.82 µM, the IC50 ([4]; Homo sapiens, Jurkat, 72 h) was 1.21 µM and the IC50 ([5]; Homo sapiens, MIA PaCa-2, 72 h) was 0.78 µM. For the same compound, the IC50 (RD: Human rhabdomyoma; Homo sapiens, 72 h) was 1.96 µM.
With `CC(C)(C)C(=O)c1sc(NC(=O)c2cc(Cl)ccc2O)nc1C(C)(C)C` [compound 199, 5-Chloro-N-{4-[(1,1-dimethyl)ethyl]-5-[(2,2-dimethyl)propionyl]thiazol-2-yl}-2-hydroxybenzamide] the IC50 ([3]; Homo sapiens, HepG2, 72 h) was 1.26 µM, the IC50 ([4]; Homo sapiens, Jurkat, 72 h) was 0.44 µM and the IC50 ([5]; Homo sapiens, MIA PaCa-2, 72 h) was 0.46 µM. For the same compound, the IC50 (RD: Human rhabdomyoma; Homo sapiens, 72 h) was 0.57 µM, the IC50 (A549: human lung cancer; Homo sapiens, A549) was 5.15 µM and the IC50 ([1]; Homo sapiens, HepG2) was 0.59 µM. The IC50 ([2]; Homo sapiens, MIA PaCa-2) was 0.56 µM.
Work on `O=C(Nc1cc(C(F)(F)F)cc(C(F)(F)F)c1)c1cc(-n2cccc2)ccc1O` [compound 27] yielded an IC50 [3] of 1.96 µM, an IC50 [4] of 1.2 µM and an IC50 [5] of 1.19 µM. The IC50 (RD: Human rhabdomyoma) was 1.26 µM.
Work on `O=C(Nc1cc(C(F)(F)F)cc(C(F)(F)F)c1)c1cc(C(=O)N2CCC(Cc3ccccc3)CC2)ccc1O` [compound 40, N-[3,5-Bis(trifluoromethyl)phenyl]-2-hydroxy-5-(4-benzylpiperidine-1-carbonyl)benzamide] yielded a melting point of 179 to 180 °C.
In the case of `CC(C)(C)c1nc(NC(=O)c2cc(Br)ccc2O)sc1N1CCN(c2ccccc2)CC1` [compound 207, 5-Bromo-N-{4-[(1,1-dimethyl)ethyl]-5-(4-phenylpiperazin-1-yl)thiazol-2-yl}-2-hydroxybenzamide], the IC50 ([3]; Homo sapiens, HepG2, 72 h) is reported as 1.76 µM, the IC50 ([4]; Homo sapiens, Jurkat, 72 h) is reported as 1.64 µM and the IC50 ([5]; Homo sapiens, MIA PaCa-2, 72 h) is reported as 1.26 µM. For the same compound, the IC50 (RD: Human rhabdomyoma; Homo sapiens, 72 h) was 1.52 µM.
`O=C(Nc1cc(C(F)(F)F)cc(C(F)(F)F)c1)c1cc(Cl)ccc1O` [compound 4, N-[3,5-bis(trifluoromethylphenyl)]-5-chloro-2-hydroxybenzamide] showed an IC50 [3] of 0.69 µM, an IC50 [4] of 0.74 µM and an IC50 [5] of 0.65 µM. It also gave an IC50 (RD: Human rhabdomyoma) of 1.03 µM, an IC50 (A549: human lung cancer) of 4.03 µM and an IC50 [1] of 0.72 µM. The IC50 [2] was 0.82 µM, the “Colony Formation (melanoma colonies in the lungs vs control)” value (B16 melanoma) was “++” and the “Survival Ratio after 5 weeks(%)” value (B16 melanoma; control 50%) was 100%.
Compound `CC(C)(C)c1nc(NC(=O)c2cc(Br)ccc2O)sc1N1CCOCC1` [compound 205, 5-Bromo-N-{4-[(1,1-dimethyl)ethyl]-5-morpholinothiazol-2-yl}-2-hydroxybenzamide] has an IC50 ([3]; Homo sapiens, HepG2, 72 h) of 3.5 µM, an IC50 ([4]; Homo sapiens, Jurkat, 72 h) of 1.89 µM and an IC50 ([5]; Homo sapiens, MIA PaCa-2, 72 h) of 1.45 µM. The IC50 (RD: Human rhabdomyoma; Homo sapiens, 72 h) was 1.94 µM, the IC50 (A549: human lung cancer; Homo sapiens, A549) was > 10 µM and the IC50 ([1]; Homo sapiens, HepG2) was 4.23 µM. The IC50 ([2]; Homo sapiens, MIA PaCa-2) was > 10 µM.
